Laboratory results: patent publication US9688651B2, “Geranyl geranyl acetone analogs and uses thereof” (NYKEN Holding B.V., priority 2012, dated 2017)

Key:
[1] = test system: HSP70, HSP25, HSP90 and HSP40; test: Upregulation of HSP gene expression (HSF1 targets) in HL-1 cardiomyocytes; format: cell-based, mouse; settings: HL-1, mild heat shock, 10 μM, 6 hours
Protocol: (§1) HL-1 cardiomyocytes were subjected to a mild heat shock of 44° C. for 10 minutes. After a recovery of 10 minutes (37 degrees 5% CO2), compounds were added in a final concentration of 10 μM (dissolved in DMSO, final concentration 0.1%). To control myocytes, 0.1% DMSO was added. After six hours the cells were lysed in RIPA buffer and used for Western blotting as described previously.^3, 10 Compounds were also screened for their ability to upregulate HSP gene expression. Hereto, HL-1 cardiomyocytes were first subjected to a mild heat shock which activates the Heat Shock Factor. After the mild heat shock, compound (10 μM) was added to the medium of HL-1 cardiomyocytes for 6 hours, followed by determination of HSP70, HSP25, HSP90 and HSP40 which are targets of the heat shock factor 1 (HSF1) transcription factor. In addition, we determined mRNA levels of the gene encoding the glucose-responsive protein 78 (Grp78) which is HSF1-independent.

[2] = test system: PARP; test: PARP cleavage in MCF-7 cells (Western blot); format: cell-based, human; parameters: key to Cell Death MCF-7 cancer cells PARP: 0 = no dead cells; + = P < 0.05; ++ = P < 0.01; +++ = P < 0.001; settings: MCF-7 lysate, Western blot, 16-20 hours
Outline: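 MCF-7 cells in DMEM/10% FCS exposed to 10 μM compound for 16-20 h; dead versus living cells counted by trypan blue. Lysates in RIPA analysed by Western blot for PARP (plus HSPs, GAPDH), ECL detection with densitometric quantification.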

[3] = test system: MCF-7 breast cancer cells; test: MCF-7 cell death, ratio death/living cells (trypan blue); format: cell-based, human; parameters: key to Cell Death MCF-7 cancer cells Death/living 100 μM: 0 = no dead cells; + = P < 0.05; ++ = P < 0.01; +++ = P < 0.001; settings: 100 μM; 16-20 hours; trypan blue
[4] = test system: HSP25; test: HSP25 mRNA (qPCR) in HL-1 cardiomyocytes after mild heat shock; format: cell-based, mouse; settings: then compound 10 μM for 6 hours
Protocol: as §1

[5] = test system: HSP27; test: HSP27 Western blot in MCF-7 cells; format: cell-based, human; parameters: key: + = P < 0.05; ++ = P < 0.01; +++ = P < 0.001; settings: MCF-7 lysate, 16-20 hours
Outline: (§2)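 MCF-7 cells in DMEM/10% FCS exposed to test compounds at final concentration 10 for 16-20 h; dead/living ratio by trypan blue. RIPA lysates, equal protein, run on 10% SDS gels and immunoblotted; ECL detection with densitometric quantification, GAPDH also probed.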

[6] = test system: HSP70; test: HSP70 protein boosting in HL-1 cardiomyocytes after mild heat shock (Western blot); format: cell-based, mouse; settings: for induction of mammalian HSP70 protein expression: HL-1, mild heat shock, 10 μM, 6 hours
Outline: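 Mouse atrial HL-1 myocytes given mild heat shock (44° C., 10 min), recovered 10 min at 37° C., then exposed to compound at 10 μM final (0.1% DMSO) for 6 h. HSP70 in RIPA lysates measured by Western blot, ECL detection and densitometry.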

[7] = test system: HSP40; test: HSP40 mRNA (qPCR) in HL-1 cardiomyocytes after mild heat shock; format: cell-based, mouse; settings: then compound 10 μM for 6 hours
Protocol: as §1

[8] = test system: HSP70; test: HSP70 Western blot in MCF-7 cells; format: cell-based, human; parameters: key: + = P < 0.05; ++ = P < 0.01; +++ = P < 0.001; settings: MCF-7 lysate, 16-20 hours
Outline: as §2

[9] = test system: HSP70; test: Hsp70 induction in murine proximal tubule (MPT) cells (Western blot); format: cell-based; settings: 40 μM, 5 hours, outperformed positive control GGA
Protocol: Murine proximal tubule (MPT) cells were isolated and cultured as described previously (Borkan et al. Heat stress ameliorates ATP depletion-induced sublethal injury in mouse proximal tubule cells. Am. J. Physiol. 1997; F347-55).
The MPT cells were exposed to 40 μM of compound for 5 hours, after which the cells were harvested in RIPA buffer followed by Western blotting.
For Western-blot analysis, equal amount of protein in SDS-PAGE sample buffer was separated on 10% PAA-SDS gels. After transfer to nitrocellulose membranes (Stratagene, USA), membranes were incubated with primary antibodies against HSP70 (Enzo C92F3A/StressGen SP810) or beta-actin (Sigma A541). Horseradish peroxidase-conjugated anti-mouse or anti-sheep (Jackson ImmunoRes) was used as secondary antibody. Signals were detected by the ECL-detection method (Amersham).

[10] = test system: glucose-responsive protein 78 (Grp78); test: Grp78 mRNA (qPCR, HSF1-independent) in HL-1 cardiomyocytes; format: cell-based, mouse; parameters: key to HSP boosting HL-1 cardiomyocytes mRNA (qPCR) Grp78 Not HSF1: 0 = no induction HSP levels; + = 2-10-fold induction; ++ = 10-30-fold induction; +++ = > 30-fold induction; settings: for upregulation of Grp78 mRNA: HL-1, mild heat shock, 10 μM, 6 hours; for HSP boosting HL-1 cardiomyocytes mRNA (qPCR) Grp78 Not HSF1: mild heat shock, then compound 10 μM for 6 hours
Protocol: as §1

[11] = test system: HSP70; test: HSP70 mRNA (qPCR) in HL-1 cardiomyocytes after mild heat shock; format: cell-based, mouse; settings: then compound 10 μM for 6 hours
Protocol: as §1

[12] = test system: HSP90; test: HSP90 mRNA (qPCR) in HL-1 cardiomyocytes after mild heat shock; format: cell-based, mouse; settings: then compound 10 μM for 6 hours
Protocol: as §1

Compound	induction of HSP gene expression [1]	Cell Death MCF-7 cancer cells PARP [2]	Cell Death MCF-7 cancer cells Death/living 100 μM [3]	HSP boosting HL-1 cardiomyocytes mRNA (qPCR) HSP 25 [4]	Cell Death MCF-7 cancer cells HSP 27 [5]	induction of mammalian HSP70 protein expression [6]	HSP boosting HL-1 cardiomyocytes mRNA (qPCR) HSP 40 [7]	Cell Death MCF-7 cancer cells HSP 70 [8]	induction of HSP70 expression in renal (MPT) cells [9]	upregulation of Grp78 mRNA [10]	HSP boosting HL-1 cardiomyocytes mRNA (qPCR) Grp78 Not HSF1 [10]	HSP boosting HL-1 cardiomyocytes mRNA (qPCR) HSP 70 [11]	HSP boosting HL-1 cardiomyocytes mRNA (qPCR) HSP 90 [12]	HSP boosting HL-1 cardiomyocytes Protein HSP70 ([6]; mild heat shock 44°C 10 min, then compound 10 μM for 6 hours, Western blot)
CC(C)=CCC/C(C)=C/CNS(C)(=O)=O [Compound 51, (E)-N-(3,7-Dimethylocta-2,6-dien-1-yl)methanesulfonamide]	strong inducers	0	0	+ (+ = 2-10-fold induction)	++ (++ = P < 0.01)	potent inducers	+ (+ = 2-10-fold induction)	+ (+ = P < 0.05)	strong inducers	no upregulation	0	+ (+ = 2-10-fold induction)	+ (+ = 2-10-fold induction)	
CCOC(=O)C(C/C=C(\C)CCC=C(C)C)C(=O)c1ccccc1O (stereo not drawn) [Compound 61, (E)-Ethyl 2-(2-hydroxybenzoyl)-5,9-dimethyldeca-4,8-dienoate]	strong inducers	0	0	+ (+ = 2-10-fold induction)	0	potent inducers	+ (+ = 2-10-fold induction)	0	strong inducers	no upregulation	0	+ (+ = 2-10-fold induction)	+ (+ = 2-10-fold induction)	++ (++ = 10-30-fold induction)
